In patent US20250388592A1 (REMYND N.V., priority 2022, published 2025) one finds EC50 data, which are given here for 73 molecules.

Each structure is given as a SMILES string. A value given as a limit tells only on which side of the number the result lay.

This assay has as its system M17_3TAU(P301L) cells. Nature of the assay: TAU-induced cytotoxicity (LDH) in the neuroblastoma tauopathy model. The format is cell-based. The following applies: Homo sapiens, 168 h, inhibition of TAU-induced toxicity, 7 days retinoic acid differentiation, LDH readout. The essentials: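 Stably transfected BE-M17 cells expressing human TAU-P301L, seeded in serum-free detection medium, then differentiated with 2.5 μM RA (added in equal volume) for 7 days at 37° C/5% CO2 to induce TAU aggregation. Cytotoxicity = supernatant LDH increase over total LDH; EC50 from dose-dependent inhibition curves.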

The molecule `Cn1ncc(Cl)c1CN1CC2(C1)CN(C(=O)OC1CCC(F)(F)CC1)C2` [Cpd B142, 4,4-difluorocyclohexyl 6-((4-chloro-1-methylpyrazol-5-yl)methyl)-2,6-diazaspiro[3.3]heptane-2-carboxylate] displayed an EC50 of 864 nM.

For the molecule `Cc1nc(CN2CC3(C2)CN(C(=O)OC2CCC(F)(F)CC2)C3)co1` [Cpd B143], the EC50 came out at 109 nM. Against the preceding molecule, the EC50 is about 7.9-fold lower.

As for `Cn1ncc(CN2CC3(C2)CN(C(=O)OC2CCC(F)(F)CC2)C3)c1Cl` [Cpd B144], the EC50 was found to be 86.5 nM.

`Cn1cc(Cl)c(CN2CC3(C2)CN(C(=O)OC2CCC(F)(F)CC2)C3)n1` [Cpd B145] yielded an EC50 of 2.78 nM.

`Cc1csc(CN2CC3(C2)CN(C(=O)OC2CCC(F)(F)CC2)C3)c1` [Cpd B146] registered an EC50 below 0.19 nM.

With `O=C(OC1CCC(F)(F)CC1)N1CC2(CN(Cc3ccccc3C(F)(F)F)C2)C1` [Cpd B147], the EC50 was 3.25 nM.

`O=C(OC1CCC(F)(F)CC1)N1CC2(CN(Cc3c(F)cccc3C(F)(F)F)C2)C1` [Cpd B148]: the EC50 was found to be 396 nM.

`O=C(OC1CCC(F)(F)CC1)N1CC2(CN(Cc3ccccc3OC(F)F)C2)C1` [Cpd B149] displayed an EC50 of 7.58 nM.

For the molecule `O=C(OC1CCC(F)(F)CC1)N1CC2(CN(Cc3ccc(Cl)cc3F)C2)C1` [Cpd B150], the EC50 is below 0.19 nM.

For `O=C(OC1CCC(F)(F)CC1)N1CC2(CN(Cc3ccc(F)cc3Cl)C2)C1` [Cpd B151], the EC50 was found to be 0.52 nM. This lies in the sub-nanomolar range.

In turn, `O=C(OC1CCC(F)(F)CC1)N1CC2(CN(Cc3ccc(F)cc3F)C2)C1` [Cpd B152] showed an EC50 of 2.76 nM.

On to `O=C(OC1CCC(F)(F)CC1)N1CC2(CN(Cc3ccc(F)cn3)C2)C1` [Cpd B153], for which the EC50 amounted to 37.2 nM.

As to `O=C(OC1CCC(F)(F)CC1)N1CC2(CN(Cc3ncccc3Cl)C2)C1` [Cpd B154], it took 7.81 nM to reach a half-maximal effect (EC50).

For the molecule `O=C(OC1CCC(F)(F)CC1)N1CC2(CN(Cc3ncccc3C(F)(F)F)C2)C1` [Cpd B155], a half-maximal response (EC50) required 4.67 nM.

Take `Cc1nc(CN2CC3(C2)CN(C(=O)OCC2CCC(F)(F)CC2)C3)cs1` [Cpd B156]: the EC50 worked out at 83.3 nM. Against the preceding molecule, the EC50 is about 18-fold higher.

In turn, `Cn1cc(CN2CC3(C2)CN(C(=O)OCC2CCC(F)(F)CC2)C3)c(Cl)n1` [Cpd B157] yielded an EC50 of 9.33 nM.

Consider `Cn1ncc(CN2CC3(C2)CN(C(=O)OCC2CCC(F)(F)CC2)C3)c1Cl` [Cpd B158], for which the EC50 worked out at 65.3 nM.

With `Cn1cc(Cl)c(CN2CC3(C2)CN(C(=O)OCC2CCC(F)(F)CC2)C3)n1` [Cpd B159], the EC50 came out at 2.29 nM.

On to `O=C(OCC1CCC(F)(F)CC1)N1CC2(CN(Cc3ncccc3Cl)C2)C1` [Cpd B160], for which the EC50 stood at 3.68 nM.

`O=C(OCC1CCC(F)(F)CC1)N1CC2(CN(Cc3ccc(F)cn3)C2)C1` [Cpd B161] yielded an EC50 of 49.3 nM.

For the molecule `O=C(OCC1CCC(F)(F)CC1)N1CC2(CN(Cc3ncccc3F)C2)C1` [Cpd B162], a half-maximal response (EC50) required 51.6 nM.

In turn, `O=C(OCC1CCC(F)(F)CC1)N1CC2(CN(Cc3ncccc3C(F)(F)F)C2)C1` [Cpd B163] came in with an EC50 of 3.67 nM.

`O=C(OCC1CCC(F)(F)CC1)N1CC2(CN(Cc3ccc(C(F)(F)F)cc3)C2)C1` [Cpd B164]: the EC50 is 19.1 nM.

Regarding `O=C(OCC1CCC(F)(F)CC1)N1CC2(CN(Cc3ccccc3C(F)(F)F)C2)C1` [Cpd B165], the EC50 worked out at 2.49 nM. Against the preceding molecule, the EC50 is about 7.7-fold lower.

Molecule `O=C(OCC1CCC(F)(F)CC1)N1CC2(CN(Cc3ccc(F)cc3C(F)(F)F)C2)C1` [Cpd B166] gave an EC50 of 0.74 nM.

For the molecule `O=C(NCC1CCC(F)(F)CC1)N1CC2(CN(Cc3ccc(F)cc3)C2)C1` [Cpd B167, N-((4,4-difluorocyclohexyl)methyl)-6-(4-fluorobenzyl)-2,6-diazaspiro[3.3]heptane-2-carboxamide], the EC50 was 4.17 nM.

In turn, `O=C(NC1CC(F)(F)C1)N1CC2(CN(Cc3ccc(F)cc3)C2)C1` [Cpd B168] showed an EC50 of 780 nM.

`O=C(NCC1CCOCC1)N1CC2(CN(Cc3ccc(F)cc3)C2)C1` [Cpd B169] gave an EC50 of 881 nM.

On to `Cc1cccnc1CN1CC2(C1)CN(C(=O)NC1CC(F)(F)C1)C2` [Cpd B170], for which the response was half-maximal at 3440 nM (EC50). Compared with the last molecule, the EC50 is about 3.9-fold higher.

As to `Cc1cccnc1CN1CC2(C1)CN(C(=O)NC1CCC(F)(F)CC1)C2` [Cpd B171], the EC50 is 77.8 nM.

For the molecule `Cc1nc(CN2CC3(C2)CN(C(=O)N(C)C2CCC(F)(F)CC2)C3)cs1` [Cpd B172], it took 102 nM to reach a half-maximal effect (EC50).

In the case of `COc1cccc(CN2CC3(C2)CN(C(=O)NCc2cccc(C(F)(F)F)c2)C3)c1` [Cpd B173], the EC50 stood at 30.3 nM.

On to `Cc1nc(CN2CC3(C2)CN(C(=O)Nc2cccc(C(F)(F)F)c2)C3)cs1` [Cpd B176], for which the response was half-maximal at 73.4 nM (EC50). Against the preceding molecule, the EC50 is about 2.4-fold higher.

`Cc1cccnc1CN1CC2(C1)CN(C(=O)NCC1CCCCC1)C2` [Cpd B177] returned a half-maximal effective concentration (EC50) of 5.39 nM.

As to `Cc1cccnc1CN1CC2(C1)CN(C(=O)NC1CCCCC1)C2` [Cpd B178], the 50% effective concentration (EC50) came to 128 nM.

As to `Cc1cccnc1CN1CC2(C1)CN(C(=O)Nc1ccc(Cl)cc1)C2` [Cpd B179], the concentration for a half-maximal effect (EC50) is 16.1 nM.

`COc1ccc(CNC(=O)N2CC3(CN(Cc4ncccc4C)C3)C2)cc1` [Cpd B180] returned an EC50 below 0.19 nM.

The molecule `COc1cccc(CN2CC3(C2)CN(C(=O)NCc2ccc(F)cc2)C3)c1` [Cpd B181] returned an EC50 of 4.98 nM.

As for `COc1cccc(CN2CC3(C2)CN(C(=O)NC2CCCC2)C3)c1` [Cpd B183], the half-maximal effective concentration (EC50) is below 0.19 nM.

On to `COc1cccc(CN2CC3(C2)CN(C(=O)NCC2CCCCC2)C3)c1` [Cpd B184], for which the EC50 was 5.12 nM. That is a single-digit nanomolar value.

The molecule `COc1cccc(CN2CC3(C2)CN(C(=O)Nc2ccc(Cl)cc2)C3)c1` [Cpd B185] had an EC50 of 17.8 nM. Compared with the last molecule, the EC50 is about 3.5-fold higher.

Molecule `COc1cccc(CN2CC3(C2)CN(C(=O)Nc2ccc(OC(F)F)cc2)C3)c1` [Cpd B186] returned an EC50 of 34 nM.

`O=C(Nc1ccc(Cl)cc1)N1CC2(CN(Cc3ccc(F)cc3)C2)C1` [Cpd B187]: the EC50 came out at 9.15 nM.

On to `O=C(NCc1ccc(F)cc1)N1CC2(CN(Cc3ccc(F)cc3)C2)C1` [Cpd B188], for which the EC50 stood at 53 nM.

Consider `O=C(Nc1cccc(C(F)(F)F)c1)N1CC2(CN(Cc3ccc(F)cc3)C2)C1` [Cpd B189], for which the EC50 was 10.6 nM.

Molecule `O=C(NC12CC(F)(C1)C2)N1CC2(CN(Cc3ccc(F)cc3)C2)C1` [Cpd B190, 6-(4-fluorobenzyl)-N-(3-fluorobicyclo[1.1.1]pentan-1-yl)-2,6-diazaspiro[3.3]heptane-2-carboxamide] had an EC50 of 491 nM.

The molecule `Cc1ccc(CN2CC3(C2)CN(C(=O)NCc2ccc(F)cc2)C3)o1` [Cpd B191, N-(4-fluorobenzyl)-6-((2-methyl-furan-5-yl)methyl)-2,6-diazaspiro[3.3]heptane-2-carboxamide] showed an EC50 of 144 nM.

The molecule `Cc1csc(CN2CC3(C2)CN(C(=O)NCc2ccc(F)cc2)C3)c1` [Cpd B192] yielded a concentration for a half-maximal effect (EC50) of 141 nM.

In turn, `Cc1nc(CN2CC3(C2)CN(C(=O)NCC2CCC(F)(F)CC2)C3)cs1` [Cpd B194] returned an EC50 of 264 nM.

Regarding `O=C(NCC1CCC(F)(F)CC1)N1CC2(CN(Cc3ncccc3Cl)C2)C1` [Cpd B196], the EC50 came out at 12.5 nM.

Turning to `O=C(NCC1CCC(F)(F)CC1)N1CC2(CN(Cc3ncccc3C(F)(F)F)C2)C1` [Cpd B197], the 50% effective concentration (EC50) was determined as 12.8 nM.

The molecule `Cc1cccnc1CN1CC2(C1)CN(C(=O)NCC1CCC(F)(F)CC1)C2` [Cpd B198] registered an EC50 of 16.5 nM. This EC50 and that of the molecule before are within 1.5-fold of each other.

The molecule `O=C(NCC1CCC(F)(F)CC1)N1CC2(CN(Cc3ncccc3F)C2)C1` [Cpd B199] yielded an EC50 of 53.9 nM.

In turn, `O=C(NCC1CCC(F)(F)CC1)N1CC2(CN(Cc3ccc(C(F)(F)F)cc3)C2)C1` [Cpd B200] gave an EC50 of 29.3 nM.

The molecule `O=C(NCC1CCC(F)(F)CC1)N1CC2(CN(Cc3ccc(F)cc3C(F)(F)F)C2)C1` [Cpd B201] had an EC50 of 3.55 nM.

As to `Cn1cc(Cl)c(CN2CC3(C2)CN(C(=O)NCC2CCC(F)(F)CC2)C3)n1` [Cpd B202], a half-maximal response (EC50) required 14.1 nM. This EC50 lies about 4-fold higher than the previous one.

As to `Cc1c(Cl)c(CN2CC3(C2)CN(C(=O)NCC2CCC(F)(F)CC2)C3)nn1C` [Cpd B203], the response was half-maximal at 15.5 nM (EC50).

For the molecule `Cn1cc(CN2CC3(C2)CN(C(=O)NCC2CCC(F)(F)CC2)C3)c(Cl)n1` [Cpd B204], the 50% effective concentration (EC50) came out at 54.9 nM.

`O=C(NC1CCC(F)(F)CC1)N1CC2(CN(Cc3ccc(F)cn3)C2)C1` [Cpd B205] had an EC50 of 263 nM.

The molecule `O=C(NC1CCC(F)(F)CC1)N1CC2(CN(Cc3ncccc3C(F)(F)F)C2)C1` [Cpd B206] showed an EC50 of 31 nM.

In turn, `O=C(NC1CCC(F)(F)CC1)N1CC2(CN(Cc3ccccc3C(F)(F)F)C2)C1` [Cpd B207] gave an EC50 of 17.8 nM. This EC50 lies about 1.7-fold lower than the previous one.

For the molecule `O=C(NC1CCC(F)(F)CC1)N1CC2(CN(Cc3c(F)cccc3C(F)(F)F)C2)C1` [Cpd B208], the EC50 is 252 nM.

Regarding `Cn1cc(Cl)c(CN2CC3(C2)CN(C(=O)NC2CCC(F)(F)CC2)C3)n1` [Cpd B209], the EC50 came out at 15.2 nM.

In turn, `Cc1csc(CN2CC3(C2)CN(C(=O)NC2CCC(F)(F)CC2)C3)c1` [Cpd B210] returned an EC50 of 14.6 nM.

As to `Cc1cccnc1CN1CC2(C1)CN(S(=O)(=O)CCc1ccccc1)C2` [Cpd B211, 2-((3-methylpyridin-2-yl)methyl)-6-((phenethyl)sulfonyl)-2,6-diazaspiro[3.3]heptane], the EC50 stood at 94.8 nM. This EC50 is about 6.5-fold higher than that of the molecule before.

`Cc1cccnc1CN1CC2(C1)CN(S(=O)(=O)Cc1cccc(C(F)(F)F)c1)C2` [Cpd B212] came in with an EC50 of 4.94 nM.

As for `Cc1cccnc1CN1CC2(C1)CN(S(=O)(=O)Cc1ccc(F)cc1)C2` [Cpd B213], the EC50 amounted to 14.6 nM.

Turning to `Cc1nc(CN2CC3(C2)CN(S(=O)(=O)Cc2cccc(C(F)(F)F)c2)C3)cs1` [Cpd B215], the EC50 is 3.73 nM.

Turning to `O=S(=O)(Cc1ccc(C(F)(F)F)cc1)N1CC2(CN(Cc3ccc(F)cc3)C2)C1` [Cpd B216], the response was half-maximal at 5.69 nM (EC50).

Regarding `O=S(=O)(c1ccc(OC(F)(F)F)cc1)N1CC2(CN(Cc3ccc(F)cc3)C2)C1` [Cpd B217], the EC50 was determined as 0.46 nM. This EC50 is about 12-fold lower than that of the molecule before.

Turning to `O=S(=O)(Cc1cccc(Cl)c1)N1CC2(CN(Cc3ccc(F)cc3)C2)C1` [Cpd B218], the EC50 amounted to 16.8 nM.

As for `COc1cccc(CN2CC3(C2)CN(S(=O)(=O)c2ccc(OC(F)(F)F)cc2)C3)c1` [Cpd B219], the concentration for a half-maximal effect (EC50) stood at 8.34 nM.

`COc1cccc(CN2CC3(C2)CN(S(=O)(=O)c2ccc(C(F)(F)F)cc2)C3)c1` [Cpd B220] had a concentration for a half-maximal effect (EC50) of 33.9 nM.
